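Protocol summary: plate cells (96-well), add compound at 5 concentrations, incubate 48 h, interpolate endpoints linearly. GI50 marks 50% less growth. TGI marks complete inhibition of growth.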
Tests used:
Test in all cases: growth of human tumour cells (NCI), 48 h
U251 CNS = tested on: U251 CNS
786-0 renal = tested on: 786-0 renal
SK-MEL-28 melanoma = tested on: SK-MEL-28 melanoma
HOP-92 NSCLC = tested on: HOP-92 NSCLC
MDA-MB-231 breast = tested on: MDA-MB-231 breast
SK-MEL-2 melanoma = tested on: SK-MEL-2 melanoma
LOX IMVI melanoma = tested on: LOX IMVI melanoma
A549 NSCLC = tested on: A549 NSCLC
HL-60(TB) leukemia = tested on: HL-60(TB) leukemia

## NS(=O)(=O)c1cccc(NC(=S)NC(=O)Nc2ccc(Cl)c(Cl)c2)c1
U251 CNS
  TGI: 39.6 µM
786-0 renal
  TGI: 30.3 µM
SK-MEL-28 melanoma
  TGI: 42.9 µM
HOP-92 NSCLC
  TGI: 54 µM
MDA-MB-231 breast
  TGI: 38.5 µM
SK-MEL-2 melanoma
  TGI: 40.2 µM
LOX IMVI melanoma
  TGI: 33.4 µM
A549 NSCLC
  TGI: 61.4 µM

## CCCCn1c(-c2ccc([N+](=O)[O-])cc2)cs/c1=N/N=C1\C(=O)Nc2ccc(Br)cc21
U251 CNS
  TGI: 22.9 µM
786-0 renal
  TGI: 29.8 µM
SK-MEL-28 melanoma
  TGI: > 100 µM
HOP-92 NSCLC
  TGI: 73.3 µM
MDA-MB-231 breast
  TGI: 32.7 µM
LOX IMVI melanoma
  TGI: 39 µM
A549 NSCLC
  TGI: 85.8 µM
HL-60(TB) leukemia
  TGI: 85.9 µM

## COc1ccc(CN2C3CC2CN(c2ccc(-c4cc(OCC(C)(C)O)cn5ncc(C#N)c45)cn2)C3)cn1
U251 CNS
  GI50: 4.55 µM
  TGI: > 100 µM
SK-MEL-28 melanoma
  GI50: > 100 µM
  TGI: > 100 µM
HOP-92 NSCLC
  GI50: 2.12 µM
  TGI: 7.35 µM
MDA-MB-231 breast
  GI50: 8.04 µM
  TGI: > 100 µM
SK-MEL-2 melanoma
  GI50: > 100 µM
  TGI: > 100 µM
LOX IMVI melanoma
  GI50: 15.1 µM
  TGI: > 100 µM
A549 NSCLC
  GI50: 6.27 µM
  TGI: > 100 µM
HL-60(TB) leukemia
  GI50: > 100 µM
  TGI: > 100 µM

## CO[C@@H]1O[C@H](C(=O)c2ccccc2)[C@H]2OC(C)(C)O[C@@H]12
U251 CNS
  TGI: > 100 µM
786-0 renal
  TGI: > 100 µM
HOP-92 NSCLC
  TGI: > 100 µM
MDA-MB-231 breast
  TGI: > 100 µM
SK-MEL-2 melanoma
  TGI: > 100 µM
LOX IMVI melanoma
  TGI: > 100 µM
HL-60(TB) leukemia
  TGI: > 100 µM

## CC1(C)[C@H]2CC[C@@]13C(=O)N1C(=O)O[C@@H]([C@H]1Cl)C(Cl)(COCc1ccccc1)C(=O)OCCO[C@H]3C2 (stereo not given in full)
U251 CNS
  TGI: > 100 µM
786-0 renal
  TGI: > 100 µM
SK-MEL-28 melanoma
  TGI: > 100 µM
HOP-92 NSCLC
  TGI: > 100 µM
SK-MEL-2 melanoma
  TGI: > 100 µM
LOX IMVI melanoma
  TGI: > 100 µM
A549 NSCLC
  TGI: > 100 µM
HL-60(TB) leukemia
  TGI: > 100 µM

## COc1ccc(-c2cc(-c3ccccc3)[nH]c(=S)c2C#N)cc1
U251 CNS
  TGI: 54.4 µM
786-0 renal
  TGI: 86.3 µM
SK-MEL-28 melanoma
  TGI: 58.7 µM
HOP-92 NSCLC
  TGI: 98.3 µM
MDA-MB-231 breast
  TGI: > 100 µM
LOX IMVI melanoma
  TGI: > 100 µM
A549 NSCLC
  TGI: 37.9 µM
HL-60(TB) leukemia
  TGI: > 100 µM

## Cc1c2c(OCC3CCCCO3)nn(C)c(=O)c2c(C)n1-c1ccccc1 (stereo not given)
U251 CNS
  TGI: 31.2 µM
786-0 renal
  TGI: 33.9 µM
HOP-92 NSCLC
  TGI: 33.1 µM
MDA-MB-231 breast
  TGI: 32.2 µM
SK-MEL-2 melanoma
  TGI: 39.4 µM
LOX IMVI melanoma
  TGI: 33.7 µM
A549 NSCLC
  TGI: 33.7 µM

## C[C@H]1SC(c2ccc(Cl)cc2Cl)N(NC(=O)c2ccncc2)C1=O (stereo not given in full)
U251 CNS
  TGI: > 100 µM
SK-MEL-28 melanoma
  TGI: > 100 µM
HOP-92 NSCLC
  TGI: > 100 µM
MDA-MB-231 breast
  TGI: > 100 µM
SK-MEL-2 melanoma
  TGI: 58.3 µM
HL-60(TB) leukemia
  TGI: > 100 µM

## Cc1cnc2c(c1)C(=O)C1=C(C2=O)C2OC(=O)CC2OC1(C)C (stereo not given)
U251 CNS
  TGI: 0.519 µM
786-0 renal
  TGI: 0.9 µM
SK-MEL-28 melanoma
  TGI: 2.04 µM
HOP-92 NSCLC
  TGI: 0.384 µM
MDA-MB-231 breast
  TGI: 0.35 µM
SK-MEL-2 melanoma
  TGI: 2.76 µM
A549 NSCLC
  TGI: 5.62 µM
HL-60(TB) leukemia
  TGI: 0.0142 µM

## COc1c(O)c2c(=O)cc(OC)c3c4c(OC)cc(=O)c5c(O)c(OC)c6c(c(c1C(C(C)O)C6C(C)O)c23)c54 (stereo not given)
U251 CNS
  TGI: 11.3 µM
786-0 renal
  TGI: 4.78 µM
HOP-92 NSCLC
  TGI: 1.49 µM
MDA-MB-231 breast
  TGI: 5.48 µM
SK-MEL-2 melanoma
  TGI: 3.73 µM
LOX IMVI melanoma
  TGI: 3.08 µM
A549 NSCLC
  TGI: 2.66 µM
HL-60(TB) leukemia
  TGI: 1.67 µM

## C\C(=N/N=C1/C(=C\N(C)C)C(=O)NC(=O)N1C)c1ccc(Cl)cc1
U251 CNS
  TGI: > 100 µM
786-0 renal
  TGI: > 100 µM
SK-MEL-28 melanoma
  TGI: > 100 µM
HOP-92 NSCLC
  TGI: > 100 µM
MDA-MB-231 breast
  TGI: > 100 µM
SK-MEL-2 melanoma
  TGI: > 100 µM
LOX IMVI melanoma
  TGI: > 100 µM
A549 NSCLC
  TGI: > 100 µM

## COc1nc(C#CC(C)(C)C)nc(OC)n1
U251 CNS
  TGI: > 100 µM
786-0 renal
  TGI: > 100 µM
SK-MEL-28 melanoma
  TGI: > 100 µM
MDA-MB-231 breast
  TGI: 59.8 µM
SK-MEL-2 melanoma
  TGI: > 100 µM
LOX IMVI melanoma
  TGI: 61.4 µM
A549 NSCLC
  TGI: > 100 µM
HL-60(TB) leukemia
  TGI: > 100 µM
